System: OVCAR-5 complex spheroids, viability
Test: Anticancer human tumor OVCAR-5 cell line growth inhibition;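 further: spheroids exposed to agents for seven days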;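 on viability, T/C: 100% = DMSO vehicle control wells viability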
Conditions: for IC50: curve of first compound; for viability, T/C: stronger effect = lower value
Procedure, shortened: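 Multicellular complex spheroids of tumor cells with human endothelial cells (HUVEC) and mesenchymal stem cells; the LSD1 inhibitor iadademstat was combined with standard-of-care or investigational agents. Top concentration at or near clinical Cmax, half-log dilutions; final DMSO ≤0.25%.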

[1] = second compound 0.1 µM, first compound 0.00316 µM
[2] = second compound 0.1 µM, first compound 0.01 µM
[3] = second compound 0.1 µM, first compound 0.0316 µM
[4] = second compound 0.1 µM, first compound 0.1 µM
[5] = second compound 0.316 µM, first compound 0.00316 µM
[6] = second compound 0.316 µM, first compound 0.01 µM
[7] = second compound 0.316 µM, first compound 0.0316 µM
[8] = second compound 0.316 µM, first compound 0.1 µM
[9] = second compound 1 µM, first compound 0.00316 µM
[10] = second compound 1 µM, first compound 0.01 µM
[11] = second compound 1 µM, first compound 0.0316 µM
[12] = second compound 1 µM, first compound 0.1 µM
[13] = second compound 3.16 µM, first compound 0.00316 µM
[14] = second compound 3.16 µM, first compound 0.01 µM
[15] = second compound 3.16 µM, first compound 0.0316 µM
[16] = second compound 3.16 µM, first compound 0.1 µM
[17] = second compound 10 µM, first compound 0.00316 µM
[18] = second compound 10 µM, first compound 0.01 µM
[19] = second compound 10 µM, first compound 0.0316 µM
[20] = second compound 10 µM, first compound 0.1 µM
[21] = second compound 0.1 µM, first compound 0.00949 µM
[22] = second compound 0.1 µM, first compound 0.03 µM
[23] = second compound 0.1 µM, first compound 0.0949 µM
[24] = second compound 0.1 µM, first compound 0.3 µM
[25] = second compound 0.1 µM, first compound 0.949 µM
[26] = second compound 0.1 µM, first compound 3 µM
[27] = second compound 0.316 µM, first compound 0.00949 µM
[28] = second compound 0.316 µM, first compound 0.03 µM
[29] = second compound 0.316 µM, first compound 0.0949 µM
[30] = second compound 0.316 µM, first compound 0.3 µM
[31] = second compound 0.316 µM, first compound 0.949 µM
[32] = second compound 0.316 µM, first compound 3 µM
[33] = second compound 1 µM, first compound 0.00949 µM
[34] = second compound 1 µM, first compound 0.03 µM
[35] = second compound 1 µM, first compound 0.0949 µM
[36] = second compound 1 µM, first compound 0.3 µM
[37] = second compound 1 µM, first compound 0.949 µM
[38] = second compound 1 µM, first compound 3 µM
[39] = second compound 3.16 µM, first compound 0.00949 µM
[40] = second compound 3.16 µM, first compound 0.03 µM
[41] = second compound 3.16 µM, first compound 0.0949 µM
[42] = second compound 3.16 µM, first compound 0.3 µM
[43] = second compound 3.16 µM, first compound 0.949 µM
[44] = second compound 3.16 µM, first compound 3 µM
[45] = second compound 10 µM, first compound 0.00949 µM
[46] = second compound 10 µM, first compound 0.03 µM
[47] = second compound 10 µM, first compound 0.0949 µM
[48] = second compound 10 µM, first compound 0.3 µM
[49] = second compound 10 µM, first compound 0.949 µM
[50] = second compound 10 µM, first compound 3 µM

## COc1cc(Nc2ncc3c(n2)-c2ccc(Cl)cc2C(c2c(F)cccc2OC)=NC3)ccc1C(=O)O + NC1CCC(NC2CC2c2ccccc2)CC1
Second compound 0.1 µM
  IC50: > 1000 nM
Second compound 0.316 µM
  IC50: > 1000 nM
Second compound 1 µM
  IC50: 999 nM
Second compound 3.16 µM
  IC50: > 1000 nM
Second compound 10 µM
  IC50: > 1000 nM
[1]
  viability, T/C: 103%
[2]
  viability, T/C: 99.1%
[3]
  viability, T/C: 83.5%
[4]
  viability, T/C: 61%
Second compound 0.1 µM, first compound 0.316 µM
  viability, T/C: 64.1%
Second compound 0.1 µM, first compound 1 µM
  viability, T/C: 54.6%
[5]
  viability, T/C: 94.5%
[6]
  viability, T/C: 93.2%
[7]
  viability, T/C: 78.4%
[8]
  viability, T/C: 64%
Second compound 0.316 µM, first compound 0.316 µM
  viability, T/C: 57.3%
Second compound 0.316 µM, first compound 1 µM
  viability, T/C: 56.6%
[9]
  viability, T/C: 87.3%
[10]
  viability, T/C: 90.3%
[11]
  viability, T/C: 80.2%
[12]
  viability, T/C: 62.7%
Second compound 1 µM, first compound 0.316 µM
  viability, T/C: 59.8%
Second compound 1 µM, first compound 1 µM
  viability, T/C: 47.4%
[13]
  viability, T/C: 83.6%
[14]
  viability, T/C: 83.7%
[15]
  viability, T/C: 75.2%
[16]
  viability, T/C: 59.3%
Second compound 3.16 µM, first compound 0.316 µM
  viability, T/C: 60.7%
Second compound 3.16 µM, first compound 1 µM
  viability, T/C: 52.5%
[17]
  viability, T/C: 83.5%
[18]
  viability, T/C: 78.7%
[19]
  viability, T/C: 79.7%
[20]
  viability, T/C: 57.6%
Second compound 10 µM, first compound 0.316 µM
  viability, T/C: 55.8%
Second compound 10 µM, first compound 1 µM
  viability, T/C: 45.5%

## Cn1ncnc1C1c2n[nH]c(=O)c3cc(F)cc(c23)NC1c1ccc(F)cc1 (stereo not given) + NC1CCC(NC2CC2c2ccccc2)CC1
Second compound 0.1 µM
  IC50: > 100 nM
Second compound 0.316 µM
  IC50: > 100 nM
Second compound 1 µM
  IC50: > 100 nM
Second compound 3.16 µM
  IC50: > 100 nM
Second compound 10 µM
  IC50: > 100 nM
Second compound 0.1 µM, first compound 0.000316 µM
  viability, T/C: 109%
Second compound 0.1 µM, first compound 0.001 µM
  viability, T/C: 95.3%
[1]
  viability, T/C: 104%
[2]
  viability, T/C: 104%
[3]
  viability, T/C: 99.5%
[4]
  viability, T/C: 100%
Second compound 0.316 µM, first compound 0.000316 µM
  viability, T/C: 112%
Second compound 0.316 µM, first compound 0.001 µM
  viability, T/C: 98.7%
[5]
  viability, T/C: 98.3%
[6]
  viability, T/C: 96%
[7]
  viability, T/C: 91.9%
[8]
  viability, T/C: 104%
Second compound 1 µM, first compound 0.000316 µM
  viability, T/C: 109%
Second compound 1 µM, first compound 0.001 µM
  viability, T/C: 96.2%
[9]
  viability, T/C: 95.7%
[10]
  viability, T/C: 99.3%
[11]
  viability, T/C: 99%
[12]
  viability, T/C: 94.3%
Second compound 3.16 µM, first compound 0.000316 µM
  viability, T/C: 97.4%
Second compound 3.16 µM, first compound 0.001 µM
  viability, T/C: 95.9%
[13]
  viability, T/C: 87.9%
[14]
  viability, T/C: 91.3%
[15]
  viability, T/C: 80.2%
[16]
  viability, T/C: 91.5%
Second compound 10 µM, first compound 0.000316 µM
  viability, T/C: 86%
Second compound 10 µM, first compound 0.001 µM
  viability, T/C: 107%
[17]
  viability, T/C: 81.4%
[18]
  viability, T/C: 79%
[19]
  viability, T/C: 67.6%
[20]
  viability, T/C: 81.3%

## NS(=O)(=O)OCC1CC(n2ccc3c(NC4CCc5ccccc54)ncnc32)CC1O (stereo not given) + NC1CCC(NC2CC2c2ccccc2)CC1
Second compound 0.1 µM
  IC50: 202 nM
Second compound 0.316 µM
  IC50: 223 nM
Second compound 1 µM
  IC50: 221 nM
Second compound 3.16 µM
  IC50: 179 nM
Second compound 10 µM
  IC50: 152 nM
[21]
  viability, T/C: 122%
[22]
  viability, T/C: 118%
[23]
  viability, T/C: 76%
[24]
  viability, T/C: 36.6%
[25]
  viability, T/C: 16.2%
[26]
  viability, T/C: 9.81%
[27]
  viability, T/C: 139%
[28]
  viability, T/C: 126%
[29]
  viability, T/C: 84.8%
[30]
  viability, T/C: 38.4%
[31]
  viability, T/C: 15.5%
[32]
  viability, T/C: 10.6%
[33]
  viability, T/C: 108%
[34]
  viability, T/C: 98.6%
[35]
  viability, T/C: 80.8%
[36]
  viability, T/C: 38.2%
[37]
  viability, T/C: 17.9%
[38]
  viability, T/C: 10.7%
[39]
  viability, T/C: 98.8%
[40]
  viability, T/C: 105%
[41]
  viability, T/C: 69.2%
[42]
  viability, T/C: 33.5%
[43]
  viability, T/C: 16.4%
[44]
  viability, T/C: 9.81%
[45]
  viability, T/C: 101%
[46]
  viability, T/C: 79.3%
[47]
  viability, T/C: 64.7%
[48]
  viability, T/C: 34%
[49]
  viability, T/C: 14.3%
[50]
  viability, T/C: 8.62%

## O=C(C=Cc1cccc(S(=O)(=O)Nc2ccccc2)c1)NO + NC1CCC(NC2CC2c2ccccc2)CC1
Second compound 0.1 µM
  IC50: 157 nM
Second compound 0.316 µM
  IC50: 172 nM
Second compound 1 µM
  IC50: 192 nM
Second compound 3.16 µM
  IC50: 167 nM
Second compound 10 µM
  IC50: 173 nM
[21]
  viability, T/C: 98.5%
[22]
  viability, T/C: 92.8%
[23]
  viability, T/C: 62.8%
[24]
  viability, T/C: 31.2%
[25]
  viability, T/C: 15.3%
[26]
  viability, T/C: 4.12%
[27]
  viability, T/C: 95.7%
[28]
  viability, T/C: 89.1%
[29]
  viability, T/C: 64.6%
[30]
  viability, T/C: 35.5%
[31]
  viability, T/C: 14.4%
[32]
  viability, T/C: 3.93%
[33]
  viability, T/C: 106%
[34]
  viability, T/C: 96%
[35]
  viability, T/C: 69.7%
[36]
  viability, T/C: 37.8%
[37]
  viability, T/C: 14.3%
[38]
  viability, T/C: 6.24%
[39]
  viability, T/C: 88%
[40]
  viability, T/C: 86.1%
[41]
  viability, T/C: 62.2%
[42]
  viability, T/C: 35.3%
[43]
  viability, T/C: 15.6%
[44]
  viability, T/C: 3.02%
[45]
  viability, T/C: 89.5%
[46]
  viability, T/C: 89.2%
[47]
  viability, T/C: 60%
[48]
  viability, T/C: 37.8%
[49]
  viability, T/C: 16.7%
[50]
  viability, T/C: 2.99%

— PubChem BioAssay AID1918956 (Molecular Pharmacology Branch, DTP, NCI, 2023)
